The EC50 is the concentration needed to bring the measured effect to its halfway point. Read a low EC50 as a more potent agent.

The assay addresses T1, hiNOS (Homo sapiens, UniProt P35228).
T1 construct: expressed in transfected cells; host or cells: HEK293
Nature of the assay: DAN assay, hiNOS expressed in transiently transfected HEK293 cells. Conditions: HEK293 cells transiently transfected with hiNOS. The class given is cell-based. A digest of the protocol:
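Human iNOS, nNOS or eNOS transiently expressed in HEK293 cells, with nNOS and eNOS needing added cofactors for activity. NO production is read as nitrite by fluorometry: 2,3-diaminonaphthalene forms fluorescent […], detecting 10 nM to 10 μM nitrite.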

A value given as a limit tells only on which side of the number the result lay.

`Cc1cc(C2CCCN2CCNCc2ccc3c(c2)OCCO3)nc(-n2ccnc2)n1` (stereo not drawn) [Example 92, (2,3-Dihydro-benzo[1,4]dioxin-6-ylmethyl)-{2-[2-(2-imidazol-1-yl-6-methyl-pyrimidin-4-yl)-pyrrolidin-1-yl]-ethyl}-amine] had a concentration for a half-maximal effect (EC50) of less than 1000 nM.

The compound `Cc1cc(C2CCCN2CCN(C)Cc2ccc3c(c2)OCCO3)nc(-n2ccnc2)n1` (stereo not drawn) [Example 93, (2,3-Dihydro-benzo[1,4]dioxin-6-ylmethyl)-{2-[2-(2-imidazol-1-yl-6-methyl-pyrimidin-4-yl)-pyrrolidin-1-yl]-ethyl}-methyl-amine] displayed an EC50 of less than 1000 nM.

Compound `NC(=O)C1CCC(C(=O)NCCc2ccc3c(c2)OCO3)N1c1nc(-n2ccnc2)ns1` (stereo not drawn) [Example 95] gave a half-maximal effective concentration (EC50) of less than 1000 nM.

`CNC(=O)C1CCC(C(=O)NCCc2ccc3c(c2)OCO3)N1c1nc(-n2ccnc2)ns1` (stereo not drawn) [Example 96, 1-(3-Imidazol-1-yl-[1,2,4]thiadiazol-5-yl)-pyrrolidine-2,5-dicarboxylic acid 2-[(2-benzo[1,3]dioxol-5-yl-ethyl)-amide] 5-methylamide] registered a concentration for a half-maximal effect (EC50) of less than 50000 nM.

The compound `Cc1cc(C(C)NCCNCc2ccc(-n3cccc3)cc2)nc(-n2ccnc2)n1` (stereo not drawn) [Example 97, N-[1-(2-Imidazol-1-yl-6-methyl-pyrimidin-4-yl)-ethyl]-N′-(4-pyrrol-1-yl-benzyl)-ethane-1,2-diamine] yielded an EC50 of less than 50000 nM.

`COc1ccc(CNCCNC(C)c2cc(C)nc(-n3ccnc3)n2)cc1F` (stereo not drawn) [Example 98, N-(3-Fluoro-4-methoxy-benzyl)-N′-[1-(2-imidazol-1-yl-6-methyl-pyrimidin-4-yl)-ethyl]-ethane-1,2-diamine] came in with an EC50 of less than 1000 nM.

`COc1ccc(CNCCNC(C)c2cc(C)nc(-n3ccnc3)n2)cc1O` (stereo not drawn) [Example 100, 5-({2-[1-(2-Imidazol-1-yl-6-methyl-pyrimidin-4-yl)-ethylamino]-ethylamino}-methyl)-2-methoxy-phenol] gave an EC50 of less than 50000 nM.

`c1cn(-c2nsc(N(CCCNCc3ccc4c(c3)OCO4)Cc3ccc4occc4c3)n2)cn1` [Example 101, N′-Benzo[1,3]dioxol-5-ylmethyl-N-benzofuran-5-ylmethyl-N-(3-imidazol-1-yl-[1,2,4]thiadiazol-5-yl)-propane-1,3-diamine]: the EC50 is less than 1000 nM.

The compound `c1cncc(CN(CCCNCc2ccc3c(c2)OCO3)c2nc(-n3ccnc3)ns2)c1` [Example 102, N′-Benzo[1,3]dioxol-5-ylmethyl-N-(3-imidazol-1-yl-[1,2,4]thiadiazol-5-yl)-N-pyridin-3-ylmethyl-propane-1,3-diamine] came in with an EC50 of less than 1000 nM.

Take `Oc1ccc(CN(CCCNCc2ccc3c(c2)OCO3)c2nc(-n3ccnc3)ns2)cc1` [Example 103, 4-{[{3-[(Benzo[1,3]dioxol-5-ylmethyl)-amino]-propyl}-(3-imidazol-1-yl-[1,2,4]thiadiazol-5-yl)-amino]-methyl}-phenol]: the EC50 is less than 1000 nM.

Consider `CSc1ccc(CN(CCCNCc2ccc3c(c2)OCO3)c2nc(-n3ccnc3)ns2)cc1` [Example 104, N′-Benzo[1,3]dioxol-5-ylmethyl-N-(3-imidazol-1-yl-[1,2,4]thiadiazol-5-yl)-N-(4-methylsulfanyl-benzyl)-propane-1,3-diamine], for which the concentration for a half-maximal effect (EC50) was less than 1000 nM.

`CN(C)c1ccc(CN(CCCNCc2ccc3c(c2)OCO3)c2nc(-n3ccnc3)ns2)cc1` [Example 105, N-Benzo[1,3]dioxol-5-ylmethyl-N′-(4-dimethylamino-benzyl)-N′-(3-imidazol-1-yl-[1,2,4]thiadiazol-5-yl)-propane-1,3-diamine] had an EC50 of less than 1000 nM.

As to `Cn1cnc(CN(CCCNCc2ccc3c(c2)OCO3)c2nc(-n3ccnc3)ns2)c1` [Example 106, N′-Benzo[1,3]dioxol-5-ylmethyl-N-(3-imidazol-1-yl-[1,2,4]thiadiazol-5-yl)-N-(1-methyl-1H-imidazol-4-ylmethyl)-propane-1,3-diamine], the EC50 is less than 1000 nM.

With `Cc1cc(CNC(=O)C2CCCN2Cc2ccc(C(F)(F)F)cc2)nc(-n2ccnc2)n1` (stereo not drawn) [Example 107, 1-(4-Trifluoromethyl-benzyl)-pyrrolidine-2-carboxylic acid (2-imidazol-1-yl-6-methyl-pyrimidin-4-ylmethyl)-amide], the EC50 was more than 50000 nM.

Regarding `Cc1cc(CNC(=O)C2CCCN2Cc2cccc(C(F)(F)F)c2)nc(-n2ccnc2)n1` (stereo not drawn) [Example 108, 1-(3-Trifluoromethyl-benzyl)-pyrrolidine-2-carboxylic acid (2-imidazol-1-yl-6-methyl-pyrimidin-4-ylmethyl)-amide], the EC50 was more than 50000 nM.

In the case of `Cc1cc(CNC(=O)C2CCCN2Cc2ccccn2)nc(-n2ccnc2)n1` (stereo not drawn) [Example 109, 1-Pyridin-2-ylmethyl-pyrrolidine-2-carboxylic acid (2-imidazol-1-yl-6-methyl-pyrimidin-4-ylmethyl)-amide], the EC50 is more than 50000 nM.

For `COc1cc(CN2CCCC2C(=O)NCc2cc(C)nc(-n3ccnc3)n2)cc(OC)c1` (stereo not drawn) [Example 110, 1-(3,5-Dimethoxy-benzyl)-pyrrolidine-2-carboxylic acid (2-imidazol-1-yl-6-methyl-pyrimidin-4-ylmethyl)-amide], the EC50 was more than 50000 nM.

Turning to `Cc1cc(CNC(=O)C2CCCN2Cc2ccc(F)cc2)nc(-n2ccnc2)n1` (stereo not drawn) [Example 111, 1-(4-Fluoro-benzyl)-pyrrolidine-2-carboxylic acid (2-imidazol-1-yl-6-methyl-pyrimidin-4-ylmethyl)-amide], the EC50 was more than 50000 nM.

The compound `Cc1cc(CNC(=O)C2CCCN2Cc2ccc(F)c(F)c2)nc(-n2ccnc2)n1` (stereo not drawn) [Example 112, 1-(3,4-Difluoro-benzyl)-pyrrolidine-2-carboxylic acid (2-imidazol-1-yl-6-methyl-pyrimidin-4-ylmethyl)-amide] yielded a concentration giving a half-maximal response (EC50) of more than 50000 nM.

The compound `Cc1cc(CNC(=O)C2CCCN2Cc2ccc(Cl)cc2)nc(-n2ccnc2)n1` (stereo not drawn) [Example 113, 1-(4-Chloro-benzyl)-pyrrolidine-2-carboxylic acid (2-imidazol-1-yl-6-methyl-pyrimidin-4-ylmethyl)-amide] yielded an EC50 of less than 50000 nM.

As for `COc1ccc(CN2CCCC2C(=O)NCc2cc(C)nc(-n3ccnc3)n2)cc1O` (stereo not drawn) [Example 114, 1-(3-Hydroxy-4-methoxy-benzyl)-pyrrolidine-2-carboxylic acid (2-imidazol-1-yl-6-methyl-pyrimidin-4-ylmethyl)-amide], the EC50 was more than 50000 nM.

Take `Cc1cc(CNC(=O)C2CCCN2Cc2ccc(OC(C)C)cc2)nc(-n2ccnc2)n1` (stereo not drawn) [Example 115, 1-(4-Isopropoxy-benzyl)-pyrrolidine-2-carboxylic acid (2-imidazol-1-yl-6-methyl-pyrimidin-4-ylmethyl)-amide]: the EC50 is more than 50000 nM.

For the compound `Cc1cc(CNC(=O)C2CCCN2Cc2ccc3c(c2)OCO3)nc(-n2ccnc2)n1` (stereo not drawn) [Example 116, 1-Benzo[1,3]dioxol-5-ylmethyl-pyrrolidine-2-carboxylic acid (2-imidazol-1-yl-6-methyl-pyrimidin-4-ylmethyl)-amide], the EC50 is more than 50000 nM.

`Cc1cc(CNC(=O)C2CCCN2Cc2ccc(OCCO)cc2)nc(-n2ccnc2)n1` (stereo not drawn) [Example 117, 1-[4-(2-Hydroxy-ethoxy)-benzyl]-pyrrolidine-2-carboxylic acid (2-imidazol-1-yl-6-methyl-pyrimidin-4-ylmethyl)-amide] yielded an EC50 of more than 50000 nM.

The compound `Cc1cc(CNC(=O)C2CCCN2Cc2ccco2)nc(-n2ccnc2)n1` (stereo not drawn) [Example 118, 1-Furan-2-ylmethyl-pyrrolidine-2-carboxylic acid (2-imidazol-1-yl-6-methyl-pyrimidin-4-ylmethyl)-amide] gave an EC50 of more than 50000 nM.

For the compound `Cc1cc(CNC(=O)C2CCCN2Cc2ccsc2)nc(-n2ccnc2)n1` (stereo not drawn) [Example 119, 1-Thiophen-3-ylmethyl-pyrrolidine-2-carboxylic acid (2-imidazol-1-yl-6-methyl-pyrimidin-4-ylmethyl)-amide], the EC50 was more than 50000 nM.

`O=C(NCCc1ccc2c(c1)OCCO2)[C@H]1CCCN1c1nc(-n2ccnc2)ns1` [Example 120, 1-(3-Imidazol-1-yl-[1,2,4]thiadiazol-5-yl)-pyrrolidine-2-carboxylic acid [2-(2,3-dihydro-benzo[1,4]dioxin-6-yl)-ethyl]-amide] yielded an EC50 of less than 1000 nM.

For `CC(C)[C@@H](Nc1nc(-n2ccnc2)ns1)C(=O)NCCc1ccc2c(c1)OCO2` [Example 122, (R)—N-(2-Benzo[1,3]dioxol-5-yl-ethyl)-2-(3-imidazol-1-yl-[1,2,4]thiadiazol-5-ylamino)-3-methyl-butyramide], the EC50 is less than 1000 nM.

The compound `O=C(NCCc1ccc2c(c1)OCCO2)[C@H]1C[C@@H](O)CN1c1nc(-n2ccnc2)ns1` [Example 123, (2R,4R)-4-Hydroxy-1-(3-imidazol-1-yl-[1,2,4]thiadiazol-5-yl)-pyrrolidine-2-carboxylic acid [2-(2,3-dihydro-benzo[1,4]dioxin-6-yl)-ethyl]-amide] came in with an EC50 of less than 1000 nM.

Take `Cc1cc(C2C(C(=O)NCCc3ccc4c(c3)OCCO4)CCN2C)nc(-n2ccnc2)n1` (stereo not drawn) [Example 124, 2-(2-Imidazol-1-yl-6-methyl-pyrimidin-4-yl)-1-methyl-pyrrolidine-3-carboxylic acid [2-(2,3-dihydro-benzo[1,4]dioxin-6-yl)-ethyl]-amide]: the EC50 is less than 1000 nM.

Consider `Cc1cc(C2C(C(=O)NCCc3ccc4c(c3)OCO4)CCN2C)nc(-n2ccnc2)n1` (stereo not drawn) [Example 125, 2-(2-Imidazol-1-yl-6-methyl-pyrimidin-4-yl)-1-methyl-pyrrolidine-3-carboxylic acid (2-benzo[1,3]dioxol-5-yl-ethyl)-amide], for which the EC50 is less than 1000 nM.

Take `O=C(NCCc1ccc2c(c1)OCCO2)[C@H]1C[C@H](O)CN1c1nc(-n2ccnc2)ns1` [Example 126, (2R,4S)-4-Hydroxy-1-(3-imidazol-1-yl-[1,2,4]thiadiazol-5-yl)-pyrrolidine-2-carboxylic acid [2-(2,3-dihydro-benzo[1,4]dioxin-6-yl)-ethyl]-amide]: the concentration for a half-maximal effect (EC50) is less than 1000 nM.

Turning to `CN(CCNCCc1ccc2c(c1)OCO2)c1nc(-n2ccnc2)ns1` [Example 127, N′-(2-Benzo[1,3]dioxol-5-yl-ethyl)-N-(3-imidazol-1-yl-[1,2,4]thiadiazol-5-yl)-N-methyl-ethane-1,2-diamine], the EC50 is less than 1000 nM.

Source of the values: patent US7825256B2, “Inducible nitric oxide synthase dimerization inhibitors” (Kalypsys, Inc., priority 2004, dated 2010).
